Laboratory results taken from patent US10786444B2, “PH dependent carriers for targeted release of pharmaceuticals along the gastrointestinal tract, compositions therefrom, and making and using same” (PLx Opco Inc., priority 2011, dated 2020).

Assay: physchem
Method: (§1) In this study, pure salicylic acid (SA) partitioning between cyclohexane and water versus salicylic acid partitioning between cyclohexane and water in SA Formulas A-D was investigated at pH 1 and at pH 7 simulating gastric fluids and duodenum fluids. The study was conducted by adding either SA, SA Formulas A-D into a cyclohexane/water partitioning system and measuring the differential partitioning of SA between the two phase as the value Log P.
as §1, with “naproxen (NAP)” for “salicylic acid (SA)”, “NAP” for “salicylic acid”, “NAP” for “SA”, “NAP, NAP” for “SA, SA”
as §1, with “indomethacin (INDO)” for “salicylic acid (SA)”, “INDO” for “salicylic acid”, “INDO” for “SA”, “INDO, INDO” for “SA, SA”
as §1, with “pure mefenamic” for “pure salicylic”, “acid (MFA)” for “acid (SA)”, “versus MFA” for “versus salicylic acid”, “in MFA” for “in SA”, “either MFA, MFA” for “either SA, SA”, “of MFA” for “of SA”

Row | Compound | logD hydrocarbon water (pH 1) | logD hydrocarbon water (pH 7)
1 | Cc1cccc(Nc2ccccc2C(=O)O)c1C [MFA, mefenamic acid] | 0 | 0.47
2 | O=C(O)c1ccccc1O [SA, salicylic acid] | -1.11 | 0
3 | COc1ccc2c(c1)c(CC(=O)O)c(C)n2C(=O)c1ccc(Cl)cc1 [INDO, indomethacin] | 1.05 | -1.81
